# Test results published in US8986696B2, “Trans-capsular administration of p38 map kinase inhibitors into orthopedic joints” (DePuy Mitek, Inc., priority 2007, dated 2015).
# Test system: rabbit anterior cruciate ligament transection (ACLT) model of osteoarthritis
# Test: ACLT model pilot study, JNJ 3026582 (Example VI)
# Assay type: in vivo
# Method: New Zealand white rabbits (male, six to eight pounds) were anesthetized with ketamine (17 mg/kg) and xylazine (2.5 mg/kg). Supplementation was given during surgery, if needed, with an additional intramuscular injection of ketamine (35 mg/kg) and xylazine (5 mg/kg). The animals were given buprenorphine (0.01-0.05 mg/kg) for analgesia via a subcutaneous injection. The buprenorphine was administered every twelve hours for seventy-two hours. After induction of anesthesia, the right leg was clipped free of hair using electric animal clippers. The area around the site of surgery was scrubbed with chlorhexidine diacetate, rinsed with alcohol, dried, and painted with an aqueous iodophor solution of 1% available iodine and surgery was prepared using aseptic technique. In the right limb of each animal, the anterior cruciate ligament (ACL) was transected. A medial parapatellar incision was made and the patella was dislocated. The knee was flexed and the ACL visualized. A scalpel blade was positioned behind the ACL and brought anteriorly, thereby cutting the ACL while protecting the posterior cruciate ligament. The patella was returned to the normal anatomic position. The wound was closed in layers.
# Following surgery, the animals were left untreated for six weeks. After six weeks, a series of five injections of the test compound were injected intra-articularly once weekly.
# The animals were euthanized six weeks after initiation with an intravenous injection of pentobarbital (60 mg/kg). […] Immediately following euthanasia, gross observations of the knee joints were made and any abnormality was recorded. The joints were analyzed for disease state in the trochlear groove, the femoral condyles and the tibial plateau. Pathological assessments were performed on the sectioned tissue. Condylar structure, cellularity, presence of GAG and presence of cartilage were evaluated.
# Sterile formulations of JNJ 3026582 (RWJ 67657) were prepared by gamma irradiation (1.5 mRAD) on dry ice. DMSO was sterile filtered and the remaining formulations were prepared aseptically. Specifically, 11.5 mg of JNJ 3026582 (RWJ 67657) was dissolved in 4 mL DMSO and the solution was thoroughly mixed with 5 mL of ARTHREASE® (Lot: 11840812) (Biotechnology General (Israel) Ltd.). The final concentration of JNJ 3026582 (RWJ 67657) in the formulation was 1.3 μg/μL and was considered the high dose. The mid dose was made by a 1:10 dilution of the high dose. The low dose was created in the same fashion as the mid dose i.e., by a 1:10 dilution of the mid dose.
# A total of four rabbits (n=4) underwent ACLT of the right limb according to the ACLT model described above.
# As discussed above, each formulation was injected once per week for five weeks. 160 μI was injected each time via a 26G (gauge) needle. The vehicle for the formulation was ARTHREASE® (Bio-Technology General (Israel) Ltd.).
# At the time of sacrifice, the following parameters were evaluated grossly (the scale follows in parenthesis):
# Each parameter was given a score. The combination of all parameters gave a Total Score. A higher score indicates more damage to the joint. The most clinically relevant parameters are discussed in detail below.
structure (smiles),measurement,setting,value
"OCCC#Cc1nc(-c2ccc(F)cc2)c(-c2ccncc2)n1CCCc1ccccc1 [JNJ 3026582 (RWJ 67657), 4-[4-(4-fluorophenyl)-1-(3-phenylpropyl)-5-(4-pyridinyl)-1H-imidazol-2-yl]-3-butyn-1-ol]","Appearance of Meniscus Lateral, mean score",High 50 μg/kg,2.00
same,"Appearance of Meniscus Medial, mean score",High 50 μg/kg,2.25
same,"Appearance of Patella, mean score",High 50 μg/kg,1.25
same,"Femoral Condyle Presence of Clefts, mean score",High 50 μg/kg,0
same,"Tibial Plateau (Lateral) # of Osteophytes, mean score",High 50 μg/kg,2.00
same,"Tibial Plateau (Lateral) Depth of Erosion, mean score",High 50 μg/kg,2.06
same,"Tibial Plateau (Lateral) Presence of Clefts, mean score",High 50 μg/kg,0
same,"Tibial Plateau (Lateral) Surface Area Erosion, mean score",High 50 μg/kg,2.50
same,"Tibial Plateau (Medial) # of Osteophytes, mean score",High 50 μg/kg,1.63
same,"Tibial Plateau (Medial) Depth of Erosion, mean score",High 50 μg/kg,1.94
same,"Tibial Plateau (Medial) Presence of Clefts, mean score",High 50 μg/kg,0
same,"Tibial Plateau (Medial) Surface Area Erosion, mean score",High 50 μg/kg,2.50
same,"Trochlear Groove # of Osteophytes, mean score",High 50 μg/kg,3.00
same,"Trochlear Groove Erosion of Cartilage, mean score",High 50 μg/kg,1.25
same,"Trochlear Groove Osteophyte Size, mean score",High 50 μg/kg,3.00
same,"Trochlear Groove Thickening, mean score",High 50 μg/kg,0.25
same,"Appearance of Meniscus Lateral, mean score",Low 0.5 μg/kg,1.25
same,"Appearance of Meniscus Medial, mean score",Low 0.5 μg/kg,1.25
same,"Appearance of Patella, mean score",Low 0.5 μg/kg,0.50
same,"Femoral Condyle Presence of Clefts, mean score",Low 0.5 μg/kg,0
same,"Tibial Plateau (Lateral) # of Osteophytes, mean score",Low 0.5 μg/kg,1.75
same,"Tibial Plateau (Lateral) Depth of Erosion, mean score",Low 0.5 μg/kg,2.13
same,"Tibial Plateau (Lateral) Presence of Clefts, mean score",Low 0.5 μg/kg,0
same,"Tibial Plateau (Lateral) Surface Area Erosion, mean score",Low 0.5 μg/kg,2.00
same,"Tibial Plateau (Medial) # of Osteophytes, mean score",Low 0.5 μg/kg,1.50
same,"Tibial Plateau (Medial) Depth of Erosion, mean score",Low 0.5 μg/kg,0.50
same,"Tibial Plateau (Medial) Presence of Clefts, mean score",Low 0.5 μg/kg,0
same,"Tibial Plateau (Medial) Surface Area Erosion, mean score",Low 0.5 μg/kg,0.25
same,"Trochlear Groove # of Osteophytes, mean score",Low 0.5 μg/kg,3.00
same,"Trochlear Groove Erosion of Cartilage, mean score",Low 0.5 μg/kg,1.00
same,"Trochlear Groove Osteophyte Size, mean score",Low 0.5 μg/kg,3.00
same,"Trochlear Groove Thickening, mean score",Low 0.5 μg/kg,0.50
same,"Appearance of Meniscus Lateral, mean score",Mid 5 μg/kg,1.00
same,"Appearance of Meniscus Medial, mean score",Mid 5 μg/kg,2.5
same,"Appearance of Patella, mean score",Mid 5 μg/kg,1.38
same,"Femoral Condyle Presence of Clefts, mean score",Mid 5 μg/kg,0
same,"Tibial Plateau (Lateral) # of Osteophytes, mean score",Mid 5 μg/kg,2.25
same,"Tibial Plateau (Lateral) Depth of Erosion, mean score",Mid 5 μg/kg,0.88
same,"Tibial Plateau (Lateral) Presence of Clefts, mean score",Mid 5 μg/kg,0
same,"Tibial Plateau (Lateral) Surface Area Erosion, mean score",Mid 5 μg/kg,2.25
same,"Tibial Plateau (Medial) # of Osteophytes, mean score",Mid 5 μg/kg,2.00
same,"Tibial Plateau (Medial) Depth of Erosion, mean score",Mid 5 μg/kg,1.13
same,"Tibial Plateau (Medial) Presence of Clefts, mean score",Mid 5 μg/kg,0
same,"Tibial Plateau (Medial) Surface Area Erosion, mean score",Mid 5 μg/kg,2.00
same,"Trochlear Groove # of Osteophytes, mean score",Mid 5 μg/kg,3.00
same,"Trochlear Groove Erosion of Cartilage, mean score",Mid 5 μg/kg,1.63
same,"Trochlear Groove Osteophyte Size, mean score",Mid 5 μg/kg,3.00
same,"Trochlear Groove Thickening, mean score",Mid 5 μg/kg,0.75
same,"All Cartilage Effects (0-38), average score",high dose 50 μg/kg,19.19
same,"All Condylar Effects (0-18), average score",high dose 50 μg/kg,8.69
same,"All Meniscal Effects (0-6), average score",high dose 50 μg/kg,4.25
same,"Total Score (0-59), average",high dose 50 μg/kg,34.31
same,"lateral femoral condyle % surface area erosion, average score",high dose 50 μg/kg,2.5
same,"medial femoral condyle % surface area erosion, average score",high dose 50 μg/kg,2.25
same,"All Cartilage Effects (0-38), average score",low dose 0.5 μg/kg,12.75
same,"All Condylar Effects (0-18), average score",low dose 0.5 μg/kg,6.38
same,"All Meniscal Effects (0-6), average score",low dose 0.5 μg/kg,2.50
same,"Total Score (0-59), average",low dose 0.5 μg/kg,25.00
same,"lateral femoral condyle % surface area erosion, average score",low dose 0.5 μg/kg,1.23
same,"medial femoral condyle % surface area erosion, average score",low dose 0.5 μg/kg,1.5
same,"All Cartilage Effects (0-38), average score",mid dose 5 μg/kg,14.50
same,"All Condylar Effects (0-18), average score",mid dose 5 μg/kg,5.88
same,"All Meniscal Effects (0-6), average score",mid dose 5 μg/kg,3.50
same,"Total Score (0-59), average",mid dose 5 μg/kg,29.63
same,"lateral femoral condyle % surface area erosion, average score",mid dose 5 μg/kg,0.75
same,"medial femoral condyle % surface area erosion, average score",mid dose 5 μg/kg,1.63
